Assay results as given in patent US20230077199A1, “PALMITOYL TETRAPEPTIDE-20 CONJUGATED NANOSILVER PARTICLE AND USE THEREOF” (priority 2021, published 2023).

System: B16F10 cells
Experiment: Measurement of melanin production
Format: cell-based, murine
Details: B16F10, 200 nM, single treatment
Description: B16F10 are seeded in 24-well plates at the density of 8×10^4 cells/well and incubated for 24 hours at 37° C. with 5% CO2 atmosphere. After removing the used cell medium, the cells are treated with fresh cell culture medium (control group), 200 nM α-MSH (α-MSH group), combination of 200 nM α-MSH and various concentrations of palmitoyl tetrapeptide-20 conjugated nanosilver particle (α-MSH+sample group), and various concentrations of palmitoyl tetrapeptide-20 conjugated nanosilver particle (sample group), for 24 hours. After treatment, the treated solution in the well is removed with further incubation with fresh cell culture medium for 24 hours.
The cells are washed twice with PBS. The cells are transferred into a 1.5 mL microtube and centrifuged at 10,000 rpm for 5 minutes to obtain cell pellets. Add 100 μL of solution (1 N NaOH containing 10% DMSO) to the pellet for 60 minutes at 80° C. to dissolve intracellular melanin. Extract 80 μL of dissolved melanin and place in 96-well plates, and melanin contents of control group and treatment group are determined by measuring the absorbance at 405 nm. The assay is repeated for three independent experiments. The equation for calculating melanin content is described as following: Total melanin content (%)=(A405 nm treatment group/A405 nm control group)×100%.

α-melanocyte stimulating hormone [α-MSH]
induction of melanin synthesis: effectively induce melanin synthesis
